{
  "source": "patent US20200397894A1",
  "about": "“COMPOSITIONS AND METHODS FOR TREATING CANCER” (University of Virginia Patent Foundation, priority 2016, published 2020)",
  "format_in_all_cases": "cell-based, human",
  "key": {"[1]": {"system": "Cal27 cells", "assay": "Rereplication by propidium iodide staining and FACS (HNSCC)", "procedure": "(§1) The effect of pevonedistat treatment or CDT2, geminin, or EMI1 knockdown on the cell cycle (and induction of DNA rereplication) was assessed by flow cytometry with propidium iodide (PI) staining. […] Cells were collected, washed with PBS, and resuspended in ethanol (75%). Cells were subsequently treated with 20 μg of DNase-free RNase and stained with PI following the manufacturer's protocol. FACSCAN™ (Becton, Dickinson and Company, Franklin Lakes, N.J., United States of America) was used to analyze the samples and G0-G1, S, and G2-M fractions were segmented. Subsequent analysis using FLOWJO® (FLOWJO, LLC, Ashland, Oreg., United States of America) and ModFit (Verity Software House, Topsham, Me., United States of America) software was used to determine apoptotic and re-replicating fractions. Where indicated, Cal27 and FaDu cells were treated with pevonedistat for 48 hours and pulsed with BrdU (10 nM) for 1 hour in the dark prior to harvesting. Cells were washed with PBS and staining solution before fixation and permeabilization steps according to the manufacturer's protocol. Cells were subsequently stained with anti-BrdU antibody solution for 20 minutes at room temperature, washed, and stained with 7-AAD for 30 minutes at 4° C. Cells were resuspended in 1 ml of staining buffer and stored at 4° C. overnight before analysis. Sampled were analyzed on a FACSCAN™ (Becton, Dickinson and Company, Franklin Lakes, N.J., United States of America), and different fractions of BrdU positive cells were determined using FLOWJO® (FLOWJO, LLC, Ashland, Oreg., United States of America) and ModFit (Verity Software House, Topsham, Me., United States of America) software."}, "[2]": {"system": "Cal27 or FaDu cells", "assay": "FACS analysis of HNSCC cells (line not given)", "procedure": "as §1, with “Cells were washed with PBS and staining solution before fixation and permeabilization steps according to the manufacturer's protocol. Cells were subsequently stained with anti-BrdU antibody solution for 20 minutes at room temperature, washed, and stained with 7-AAD for 30 minutes at 4° C. Cells were resuspended in 1 ml of staining buffer and stored at 4° C. overnight before analysis.” left out"}, "[3]": {"system": "Cal27 cells", "assay": "Clonogenic survival assay for radiation sensitivity", "set-up": "SF4: unit not given here", "details": "for SF4: S 0.1; for SER (sensitivity enhancement ratio): at 10% survival", "procedure": "(§2) The effect of pevonedistat treatment or transient silencing of CDT2, geminin, or EMI1 on cell proliferation or on radiation sensitivity was tested using clonogenic survival assays. Cells were transfected with the appropriate si-RNA 48 hours prior to seeding. Cells were then counted using COUNTESS™ Automated Cell Counter (INVITROGEN™, Carlsbad, Calif., United States of America) and were seeded at 15,000 cells/plate in 60 mm dishes. Cells were irradiated 24 hours after seeding with various doses and were cultured for 7-10 days. Once colonies reached the appropriate size (>50 cells each), cells were washed twice with cold PBS, fixed in cold 100% methanol for 10 minutes, and stained with crystal violet (0.5%) for 10 minutes. The plates were washed, dried, and imaged using IMAGE LAB™ software (BioRad Laboratories, Inc., Hercules, Calif., United States of America). QUANTITY ONE® software (BioRad Laboratories, Inc., Hercules, Calif., United States of America) was used to quantify the number of colonies and survival curves were established based on the linear quadratic model, using the formula S=e^−αD-βD2; where S represents the surviving fraction and D the dose of irradiation. Results are represented as mean standard deviation (SD) of three independent experiments normalized to the corresponding non-irradiated plates for each group. When the effect of pevonedistat on cell radiosensitivity was tested, cells were seeded at 15,000 cells/60 mm plate and allowed to adhere for 4-6 hours. Pevonedistat was then added upon cell adherence at varying concentrations and cells were irradiated the following day. The duration of the experiment and the stopping procedure were as described above."}, "[4]": {"system": "FaDu cells", "assay": "Clonogenic survival assay for radiation sensitivity", "set-up": "SF4: unit not given here", "details": "for SF4: S 0.1; for SER (sensitivity enhancement ratio): at 10% survival", "procedure": "as §2"}, "[5]": {"system": "cullin ubiquitylation substrates (CDT2, CDT1, p21, p27) in DM93 cells", "assay": "Immunoblotting of cullin ubiquitylation substrates", "details": "DM93, increasing doses for 24 hours; significant levels at 1 μM", "procedure": "Melanoma cells were lysed with RIPA lysis buffer (50 mM Tris, pH 8.0; 150 mM NaCl, 1% NP-40; 0.5% sodium deoxycholate; 0.1% SDS; 1 mM Benzamidine-HCl; 0.5 μg/ml Leupeptin; 0.5 μg/ml Aprotinin; 1 μg/ml pepstatin; 20 mM NaF; 20 mM Na3VO4), and equal amounts of protein were electrophoretically separated in a polyacrylamide 8-12% gel (Bio-Rad Laboratories, Inc., Hercules, Calif., United States of America), trans-blotted to a nitrocellulose membrane, and incubated overnight with primary antibodies at 4° C. The following antibodies were used: Anti-p21 (C19), anti-p27 (C19), anti-p53 (DO-1), and anti-tubulin (10D8) were purchased from Santa Cruz Biotechnology, Inc. (California, United States of America). Antibodies against SET8, CHK1, CHK2, p-CHK1 (S375), p-CHK2 (T68), H2AX and p-H2AX (γH2AX; T139), and PARP were purchased from Cell Signaling Technology, Inc. (Danvers, Mass., United States of America). Anti-Cul3 was purchased from Bethyl Laboratories (Montgomery, Tex., United States of America). Anti-CDT1 and anti-CDT2 antibodies were described before (Abbas et al., 2010). The immunoblot signals were detected by enhanced chemiluminescence. For murine melanoma xenografts, tumors were isolated, washed three times with cold PBS, and frozen at −80° C. until use. […]"}, "[6]": {"details": "Cal27, 20 nM pevonedistat 24 hours prior to irradiation"}, "[7]": {"details": "Cal27, 40 nM pevonedistat 24 hours prior to irradiation"}, "[8]": {"details": "Cal27, 60 nM pevonedistat 24 hours prior to irradiation"}, "[9]": {"details": "Cal27, 80 nM pevonedistat 24 hours prior to irradiation"}, "[10]": {"details": "10 nM pevonedistat 24 hours prior to irradiation"}, "[11]": {"details": "20 nM pevonedistat 24 hours prior to irradiation"}, "[12]": {"details": "40 nM pevonedistat 24 hours prior to irradiation"}, "[13]": {"details": "60 nM pevonedistat 24 hours prior to irradiation"}},
  "note": "Several values for one entry are separate records, joined by “and”; a condition that tells them apart may be missing. Equal values may be shown once.",
  "data": [
    {"compound": "NS(=O)(=O)OCC1CC(n2ccc3c(NC4CCc5ccccc54)ncnc32)CC1O", "note": "[pevonedistat, ((1S,2S,4R)-4-(4-((1S)-2,3-Dihydro-H-inden-1-ylamino)-7H-pyrrolo(2,3-d)pyrimidin-7-yl)-2-hydroxycyclopentyl)methyl sulphamate]", "values": [
      {"measurement": "cells undergoing rereplication", "setting": "[1]; Cal27, 40 nM pevonedistat 48 hours plus 2 Gy at the 24 hour time point", "result": 32.9, "unit": "%"},
      {"measurement": "cells undergoing rereplication", "setting": "[1]; Cal27, 40 nM pevonedistat for 48 hours", "result": 16.8, "unit": "%"},
      {"measurement": "cells exhibiting >4N DNA content", "setting": "[1]; Cal27, 100 nM pevonedistat, PI staining", "result": 61, "unit": "%"},
      {"measurement": "cells exhibiting sub-G1 DNA content", "setting": "[2]; 72 hours post-treatment", "result": "5-10%"},
      {"measurement": "concentration at which rereplication was also observed", "setting": "[2]; as early as 24 hours following treatment", "result": 40, "unit": "nM"},
      {"measurement": "α (linear quadratic model)", "setting": "[3]; [6]", "result": "1.50 × 10^−13"},
      {"measurement": "β (linear quadratic model)", "setting": "[3]; [6]", "result": 0.049},
      {"measurement": "SF4", "setting": "[3]; Cal27, 20 nM pevonedistat", "result": 6.893},
      {"measurement": "SER (sensitivity enhancement ratio)", "setting": "[3]; Cal27, 20 nM pevonedistat", "result": 1.171},
      {"measurement": "α (linear quadratic model)", "setting": "[3]; [7]", "result": 0.108},
      {"measurement": "β (linear quadratic model)", "setting": "[3]; [7]", "result": 0.052},
      {"measurement": "SF4", "setting": "[3]; Cal27, 40 nM pevonedistat", "result": 5.692},
      {"measurement": "SER (sensitivity enhancement ratio)", "setting": "[3]; Cal27, 40 nM pevonedistat", "result": 1.419},
      {"measurement": "α (linear quadratic model)", "setting": "[3]; [8]", "result": 0.471},
      {"measurement": "β (linear quadratic model)", "setting": "[3]; [8]", "result": 0.009},
      {"measurement": "SF4", "setting": "[3]; Cal27, 60 nM pevonedistat", "result": 4.457},
      {"measurement": "SER (sensitivity enhancement ratio)", "setting": "[3]; Cal27, 60 nM pevonedistat", "result": 1.812},
      {"measurement": "α (linear quadratic model)", "setting": "[3]; [9]", "result": 0.906},
      {"measurement": "β (linear quadratic model)", "setting": "[3]; [9]", "result": "−0.020"},
      {"measurement": "SF4", "setting": "[3]; Cal27, 80 nM pevonedistat", "result": 2.702},
      {"measurement": "SER (sensitivity enhancement ratio)", "setting": "[3]; Cal27, 80 nM pevonedistat", "result": 2.702},
      {"measurement": "α (linear quadratic model)", "setting": "[4]; [10]", "result": 0.105},
      {"measurement": "β (linear quadratic model)", "setting": "[4]; [10]", "result": 0.017},
      {"measurement": "SF4", "setting": "[4]; 10 nM pevonedistat", "result": 8.979},
      {"measurement": "SER (sensitivity enhancement ratio)", "setting": "[4]; 10 nM pevonedistat", "result": 1.055},
      {"measurement": "α (linear quadratic model)", "setting": "[4]; [11]", "result": 0.242},
      {"measurement": "β (linear quadratic model)", "setting": "[4]; [11]", "result": 0.006},
      {"measurement": "SF4", "setting": "[4]; 20 nM pevonedistat", "result": 7.987},
      {"measurement": "SER (sensitivity enhancement ratio)", "setting": "[4]; 20 nM pevonedistat", "result": 1.186},
      {"measurement": "α (linear quadratic model)", "setting": "[4]; [12]", "result": 0.241},
      {"measurement": "β (linear quadratic model)", "setting": "[4]; [12]", "result": 0.014},
      {"measurement": "SF4", "setting": "[4]; 40 nM pevonedistat", "result": 6.830},
      {"measurement": "SER (sensitivity enhancement ratio)", "setting": "[4]; 40 nM pevonedistat", "result": 1.387},
      {"measurement": "α (linear quadratic model)", "setting": "[4]; [13]", "result": 0.282},
      {"measurement": "β (linear quadratic model)", "setting": "[4]; [13]", "result": 0.013},
      {"measurement": "SF4", "setting": "[4]; 60 nM pevonedistat", "result": 6.328},
      {"measurement": "SER (sensitivity enhancement ratio)", "setting": "[4]; 60 nM pevonedistat", "result": "1.49 and 1.497"},
      {"measurement": "cullin ubiquitylation substrates CDT2, CDT1, p21 and p27", "setting": "[5]", "result": "dose-dependent increase"}
    ]}
  ]
}
